From PubChem BioAssay AID330 (DTP/NCI, 2004)
“And” between values parts separate entries of the source, which are not always exact repeats. Identical values can stand only once. Inconclusive results and toxic doses are left out.

Test system: P388 leukemia ip, CD2F1 mice, survival T/C
Test: NCI In Vivo Anticancer Drug Screen. Data for tumor model P388 Leukemia (intraperitoneal) in CD2F1 (CDF1) mice
Conditions: endpoint: median survival time, higher = longer survival
In short: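 Mice carrying the transplanted tumor received test compound or vehicle. Survival was recorded in each group, and the value is the treated-group measurement divided by that of the vehicle-treated control group.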

[1] = dose: 100.0 mg/kg/injection, schedule: Q01DX001 (ip), vehicle: saline with Tween-80
[2] = dose: 200.0 mg/kg/injection, schedule: Q01DX001 (ip), vehicle: saline with Tween-80
[3] = dose: 400.0 mg/kg/injection, schedule: Q01DX001 (ip), vehicle: saline with Tween-80
[4] = dose: 100.0 mg/kg/injection, schedule: Q01DX009 (ip), vehicle: Klucel (hydroxypropylcellulose) (HPC)
[5] = dose: 200.0 mg/kg/injection, schedule: Q01DX009 (ip), vehicle: Klucel (hydroxypropylcellulose) (HPC)
[6] = dose: 50.0 mg/kg/injection, schedule: Q01DX005 (ip), vehicle: saline
[7] = dose: 100.0 mg/kg/injection, schedule: Q01DX005 (ip), vehicle: saline
[8] = dose: 50.0 mg/kg/injection, schedule: Q01DX005 (ip), vehicle: Klucel (hydroxypropylcellulose) (HPC)
[9] = dose: 100.0 mg/kg/injection, schedule: Q01DX005 (ip), vehicle: Klucel (hydroxypropylcellulose) (HPC)
[10] = dose: 200.0 mg/kg/injection, schedule: Q01DX005 (ip), vehicle: Klucel (hydroxypropylcellulose) (HPC)
[11] = dose: 12.5 mg/kg/injection, schedule: Q01DX009 (ip), vehicle: other
[12] = dose: 25.0 mg/kg/injection, schedule: Q01DX009 (ip), vehicle: other
[13] = dose: 50.0 mg/kg/injection, schedule: Q01DX009 (ip), vehicle: other
[14] = dose: 50.0 mg/kg/injection, schedule: Q01DX009 (ip), vehicle: saline with Tween-80
[15] = dose: 100.0 mg/kg/injection, schedule: Q01DX009 (ip), vehicle: saline with Tween-80
[16] = dose: 200.0 mg/kg/injection, schedule: Q01DX009 (ip), vehicle: saline with Tween-80
[17] = dose: 60.0 mg/kg/injection, schedule: Q01DX005 (ip), vehicle: saline with Tween-80
[18] = dose: 120.0 mg/kg/injection, schedule: Q01DX005 (ip), vehicle: saline with Tween-80
[19] = dose: 240.0 mg/kg/injection, schedule: Q01DX005 (ip), vehicle: saline with Tween-80

## O=C(N/N=C/c1cc(Cl)cc(Cl)c1[O-])c1ccccc1.O=C(N/N=C/c1cc(Cl)cc(Cl)c1[O-])c1ccccc1.[Zn+2]
[1]
  T/C: 92 % of control
[2]
  T/C: 94 % of control
[3]
  T/C: 92 % of control

## Cn1c(=O)ccc2c3ncccc3c(C(F)(F)F)cc21
[1]
  T/C: 99 % of control
[2]
  T/C: 100 % of control
[3]
  T/C: 101 % of control

## O=C(c1ccc(O)cc1)c1ccc(C(=O)c2ccc(O)cc2)cc1
dose: 50.0 mg/kg/injection, schedule: Q01DX009 (ip), vehicle: Klucel (hydroxypropylcellulose) (HPC)
  T/C: 99 % of control
[4]
  T/C: 97 % of control
[5]
  T/C: 90 % of control

## C=CCCCN1C(=O)CCC1=O
[6]
  T/C: 105 % of control
[7]
  T/C: 97 % of control
dose: 200.0 mg/kg/injection, schedule: Q01DX005 (ip), vehicle: saline
  T/C: 100 % of control

## CCc1c(-c2ccccc2)n[nH]c1-c1[nH]nc(-c2ccccc2)c1CC
dose: 60.0 mg/kg/injection, schedule: Q01DX005 (ip), vehicle: Klucel (hydroxypropylcellulose) (HPC)
  T/C: 96 % of control
dose: 120.0 mg/kg/injection, schedule: Q01DX005 (ip), vehicle: Klucel (hydroxypropylcellulose) (HPC)
  T/C: 96 % of control
dose: 240.0 mg/kg/injection, schedule: Q01DX005 (ip), vehicle: Klucel (hydroxypropylcellulose) (HPC)
  T/C: 96 % of control

## C=C1C(=O)OC2CC(C)/C=C\C(=O)C(C)(O)C(O)C(O)C12 (centres undefined) (tested in a mixture with another compound)
dose: 12.5 mg/kg/injection, schedule: Q01DX001 (ip), vehicle: Klucel (hydroxypropylcellulose) (HPC)
  T/C: 113 % of control
dose: 25.0 mg/kg/injection, schedule: Q01DX001 (ip), vehicle: Klucel (hydroxypropylcellulose) (HPC)
  T/C: 105 % of control

## Nc1n[nH]c2ccccc12
[8]
  T/C: 104 % of control and 107 % of control
[9]
  T/C: 105 % of control and 107 % of control
[10]
  T/C: 117 % of control

## CC(C)(Br)C(C)(C)OO
dose: 18.75 mg/kg/injection, schedule: Q04DX003 (ip), vehicle: Klucel (hydroxypropylcellulose) (HPC)
  T/C: 104 % of control
dose: 37.5 mg/kg/injection, schedule: Q04DX003 (ip), vehicle: Klucel (hydroxypropylcellulose) (HPC)
  T/C: 112 % of control
dose: 75.0 mg/kg/injection, schedule: Q04DX003 (ip), vehicle: Klucel (hydroxypropylcellulose) (HPC)
  T/C: 104 % of control

## CCOC(=O)N(NC(=O)c1ccccc1)C(C)=O
[11]
  T/C: 111 % of control
[12]
  T/C: 109 % of control
[13]
  T/C: 99 % of control

## NNS(=O)(=O)c1ccc2ccccc2c1
[11]
  T/C: 102 % of control
[12]
  T/C: 102 % of control and 86 % of control
[13]
  T/C: 86 % of control
dose: 100.0 mg/kg/injection, schedule: Q01DX009 (ip), vehicle: other
  T/C: 102 % of control and 95 % of control
dose: 200.0 mg/kg/injection, schedule: Q01DX009 (ip), vehicle: other
  T/C: 101 % of control and 95 % of control

## COc1ccc(-c2cnc3c(N)nn(C)c3n2)cc1
dose: 100.0 mg/kg/injection, schedule: Q04DX003 (ip), vehicle: saline with Tween-80
  T/C: 90 % of control
dose: 200.0 mg/kg/injection, schedule: Q04DX003 (ip), vehicle: saline with Tween-80
  T/C: 100 % of control
dose: 400.0 mg/kg/injection, schedule: Q04DX003 (ip), vehicle: saline with Tween-80
  T/C: 105 % of control

## CCC(=O)Oc1ccc(/C=N/NC(N)=S)nc1
dose: 12.5 mg/kg/injection, schedule: Q01DX009 (ip), vehicle: saline
  T/C: 166 % of control
dose: 25.0 mg/kg/injection, schedule: Q01DX009 (ip), vehicle: saline
  T/C: 157 % of control
dose: 50.0 mg/kg/injection, schedule: Q01DX009 (ip), vehicle: saline
  T/C: 158 % of control and 164 % of control

## CCCCCCC(=O)CC(SCC)c1ccc(Cl)c(Cl)c1 (centres undefined)
[14]
  T/C: 100 % of control
[15]
  T/C: 97 % of control
[16]
  T/C: 106 % of control

## O=S(=O)(F)C(Br)(Br)S(=O)(=O)F
[8]
  T/C: 97 % of control
[9]
  T/C: 97 % of control

## O=C1CCCC/C1=C\N(c1ccccc1)c1ccccc1
[14]
  T/C: 106 % of control
[15]
  T/C: 98 % of control
[16]
  T/C: 95 % of control

## OCCc1nccnn1
dose: 12.5 mg/kg/injection, schedule: Q04DX003 (ip), vehicle: saline
  T/C: 104 % of control
dose: 25.0 mg/kg/injection, schedule: Q04DX003 (ip), vehicle: saline
  T/C: 107 % of control
dose: 50.0 mg/kg/injection, schedule: Q04DX003 (ip), vehicle: saline
  T/C: 104 % of control
dose: 200.0 mg/kg/injection, schedule: Q04DX003 (ip), vehicle: saline
  T/C: 87 % of control
dose: 400.0 mg/kg/injection, schedule: Q04DX003 (ip), vehicle: saline
  T/C: 86 % of control

## CCCCC1(C(O)CC)Sc2ccccc2N1C (centres undefined)
[17]
  T/C: 100 % of control
[18]
  T/C: 101 % of control
[19]
  T/C: 110 % of control

## CC(=O)Nc1ccc(S(=O)(=O)Nc2cnccn2)cc1
[1]
  T/C: 93 % of control

## C=C(CC(N)=O)C(N)C(=O)O (centres undefined)
dose: 60.0 mg/kg/injection, schedule: Q01DX005 (ip), vehicle: saline
  T/C: 100 % of control
dose: 120.0 mg/kg/injection, schedule: Q01DX005 (ip), vehicle: saline
  T/C: 100 % of control
dose: 240.0 mg/kg/injection, schedule: Q01DX005 (ip), vehicle: saline
  T/C: 100 % of control

## COc1cc2c(cc1OC)C(Cc1ccsc1)NCC2 (centres undefined)
dose: 50.0 mg/kg/injection, schedule: Q04DX002 (ip), vehicle: Klucel (hydroxypropylcellulose) (HPC)
  T/C: 102 % of control
dose: 100.0 mg/kg/injection, schedule: Q04DX002 (ip), vehicle: Klucel (hydroxypropylcellulose) (HPC)
  T/C: 100 % of control

## O=C1c2ccccc2OCC1/C=N/O (centres undefined)
[17]
  T/C: 95 % of control
[18]
  T/C: 103 % of control
[19]
  T/C: 101 % of control

## Nc1ccc(-c2c3ccccc3nc3cc(N)ccc23)cc1
[6]
  T/C: 118 % of control
[7]
  T/C: 115 % of control

## COC(=O)CCC1=C(C)c2cc3[nH]c(cc4[nH]c(cc5nc(cc1n2)C(CCC(=O)OC)=C5C)c(C#N)c4C)c(C#N)c3C
[8]
  T/C: 104 % of control
[9]
  T/C: 95 % of control
[10]
  T/C: 100 % of control

## COC(=O)[C@H]1O[C@H]1c1cccc[n+]1[O-]
dose: 25.0 mg/kg/injection, schedule: Q01DX005 (ip), vehicle: water
  T/C: 100 % of control
dose: 50.0 mg/kg/injection, schedule: Q01DX005 (ip), vehicle: water
  T/C: 97 % of control
dose: 100.0 mg/kg/injection, schedule: Q01DX005 (ip), vehicle: water
  T/C: 100 % of control
dose: 200.0 mg/kg/injection, schedule: Q01DX005 (ip), vehicle: water
  T/C: 102 % of control

## CCOC(=O)/C(=C/c1ccco1)C(C)=O
[4]
  T/C: 102 % of control
[5]
  T/C: 110 % of control

## CC(C)(C)c1cc2c3c(c1)C(C(F)(F)F)(C(F)(F)F)OS3(O)OC2(C(F)(F)F)C(F)(F)F
dose: 12.5 mg/kg/injection, schedule: Q01DX005 (ip), vehicle: suspension in saline
  T/C: 103 % of control
dose: 25.0 mg/kg/injection, schedule: Q01DX005 (ip), vehicle: suspension in saline
  T/C: 108 % of control

## C/C(=N\Nc1cc(C)c2ccccc2n1)c1ccccn1
dose: 12.5 mg/kg/injection, schedule: Q01DX005 (ip), vehicle: saline with Tween-80
  T/C: 103 % of control
dose: 25.0 mg/kg/injection, schedule: Q01DX005 (ip), vehicle: saline with Tween-80
  T/C: 103 % of control
dose: 50.0 mg/kg/injection, schedule: Q01DX005 (ip), vehicle: saline with Tween-80
  T/C: 102 % of control and 115 % of control

## CCN(CC)CCCC(Nc1c2ccc(Cl)cc2nc2ccc(OC)cc12)c1cccc2ccccc12 (centres undefined)
dose: 6.0 mg/kg/injection, schedule: Q01DX005 (ip), vehicle: Klucel (hydroxypropylcellulose) (HPC)
  T/C: 103 % of control
dose: 12.0 mg/kg/injection, schedule: Q01DX005 (ip), vehicle: Klucel (hydroxypropylcellulose) (HPC)
  T/C: 106 % of control
dose: 25.0 mg/kg/injection, schedule: Q01DX005 (ip), vehicle: Klucel (hydroxypropylcellulose) (HPC)
  T/C: 106 % of control

## NC1[N-]C(C2CCCC[N-]2)CC2CCCCC21.NC1[N-]C(C2CCCC[N-]2)CC2CCCCC21.O=[N+]([O-])O.[Cu+] (centres undefined)
dose: 6.25 mg/kg/injection, schedule: Q04DX009 (ip), vehicle: suspension in saline
  T/C: 98 % of control
dose: 12.5 mg/kg/injection, schedule: Q04DX009 (ip), vehicle: suspension in saline
  T/C: 103 % of control
dose: 25.0 mg/kg/injection, schedule: Q04DX009 (ip), vehicle: suspension in saline
  T/C: 113 % of control
